# Experimental data published in patent publication US20100204219A1, “AROMATIC 1,4-DI-CARBOXYLAMIDES AND THEIR USE” (priority 2006, published 2010).
# Target: T1, βCat-BCL9 (beta-Catenin/BCL9-BCL9L interaction) (Homo sapiens, UniProt P35222)
# T1 sequence (P35222 1-781): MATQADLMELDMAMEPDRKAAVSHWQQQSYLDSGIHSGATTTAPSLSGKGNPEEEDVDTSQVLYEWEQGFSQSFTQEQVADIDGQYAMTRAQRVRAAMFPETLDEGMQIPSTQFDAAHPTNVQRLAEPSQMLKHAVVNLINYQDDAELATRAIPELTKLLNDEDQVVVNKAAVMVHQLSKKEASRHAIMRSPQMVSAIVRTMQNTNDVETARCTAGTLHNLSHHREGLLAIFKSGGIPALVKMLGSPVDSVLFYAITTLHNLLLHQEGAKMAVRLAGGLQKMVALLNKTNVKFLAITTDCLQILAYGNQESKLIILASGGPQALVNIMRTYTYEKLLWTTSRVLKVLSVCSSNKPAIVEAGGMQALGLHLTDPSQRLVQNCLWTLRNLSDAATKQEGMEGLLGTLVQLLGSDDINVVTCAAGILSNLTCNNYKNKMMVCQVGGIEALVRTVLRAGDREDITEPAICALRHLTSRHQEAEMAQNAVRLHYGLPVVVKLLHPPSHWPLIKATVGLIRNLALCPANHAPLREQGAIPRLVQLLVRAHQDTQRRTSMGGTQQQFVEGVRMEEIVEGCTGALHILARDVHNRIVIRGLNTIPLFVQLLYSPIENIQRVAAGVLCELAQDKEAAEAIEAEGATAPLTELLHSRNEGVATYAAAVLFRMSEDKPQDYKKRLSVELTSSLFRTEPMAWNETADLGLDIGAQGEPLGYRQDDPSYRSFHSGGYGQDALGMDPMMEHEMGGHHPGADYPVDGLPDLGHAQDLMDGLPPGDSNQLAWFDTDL
# Experiment: ELISA based protein-protein interaction assay, βCat-BCL9
# Assay type: binding
# Details: Example 1
# Description: cDNAs including the binding domains of Lgs and beta-Catenin were fused down-stream of glutathione-S-transferase (GST) cDNA in pGEX-4T inducible bacterial expression vector (Pharmacia). Similar recombinant DNA constructs were generated in the pET-32a(+) vector (Novagen) for expression of fusion protein containing the Thioredoxine-6His tag at their N-terminus. Fusion proteins were produced in BL21 bacteria (e.g. Stratagene) following manufacturer's recommendation.
# To isolate the produced fusions protein, bacteria were ground in aluminum oxide (Sigma, A2039) and the resulting powder extracted in lysis buffer (140 mM NaCl, 10 mM Na2HPO4, 1.8 mM KH2PO4, 2.7 mM KCl, 1 mM EDTA, 1% Triton-X-100, 1 mM DTT and protease inhibitors) under rotation for 30 minutes. Supernatants were cleared by centrifugation then filtered on a 0.45 μm membrane before protein purification. For GST tagged protein, lysate were processed on glutathione agarose beads following manufacturer's recommendation (Amersham Pharmacia) and purified proteins eluted in 50 mM Tris-Cl, 10 mM reduced glutathione pH8.0. For thioredoxine-6His fusions, tagged proteins were purified from the lysate on a nickel chelating column (e.g. Hitrap chelating, G.E. Healthcare) using an HPLC system (e.g. Akta Prime, G.E. Healthcare) and eluted under increasing concentration of imidazole. The purified proteins solution was dialyzed against PBS before use. The quality of the preparations was checked by SDS-gel electrophoresis by standard methods well known by persons skilled in the art.
# Compound preparation: Compounds can be prepared as 25 mM stock in DMSO and diluted in DMSO to reach final test concentrations of up to 100 μM. Final DMSO concentration in the assay is 5%.
# 100 μl of GST fusion protein (e.g. GST-βCatenin) diluted to the appropriate concentration in phosphate buffer saline are added per well to a 96 well plate with high protein binding capacity (e.g. Nunc Maxisorp) and placed at 4° C. overnight. The following day the liquid in the wells is discarded and 150 μl 3% bovine serum albumin (BSA) in PBS are added to each well and incubated at room temperature for 2 hours under moderate shaking. This solution is then discarded and each well washed twice with 200 μl PBS. After carefully discarding the second wash, a mixture of 5 μl compound dilution and 95 μl 6His fusion protein (e.g. 6His-Bcl9) diluted to the appropriate concentration in PBS is added to each well. The plate is then incubated for 1 hour at room temperature under moderate shaking. This protein solution is then discarded and the wells washed 3 times with 200 μl 0.1% Tween-20 solution in PBS. After carefully discarding the final wash, 100 μl of anti 6His antibody conjugated to the horse-radish peroxidase (e.g. Roche antibody 11965085001) at the appropriate dilution in 1% BSA in PBS is added to the wells and the plate incubated for 1 hour at room temperature under moderate shaking. This solution is then discarded and the wells washed 3 times with 200 μl 0.1% Tween-20 solution in PBS. After carefully discarding the final wash, 100 μl of HRP substrate […] (TMB) in solution (e.g. Sigma T0440) is added to the wells and the plate incubated up to 30 minutes in the dark at room temperature. The reaction is stopped by addition of 100 μl of 2N HCl to each well and the optical density is measured at 450 nm and 630 nm.
row,SMILES,IC50 [µM]
1,Cc1cc(NC(=O)c2ccc(C(=O)Nc3cc(C)on3)nc2)no1 [TG00011289],> 50
2,O=C(Nc1cc(C(F)(F)F)ccc1Cl)c1ccc(C(=O)Nc2cc(C(F)(F)F)ccc2Cl)nc1 [TGC0011278],> 100
3,COc1ccc(Cl)cc1NC(=O)c1ccc(C(=O)Nc2cc(Cl)ccc2OC)nc1 [TGC0011282],> 100
4,CC(C)NC(=O)c1ccc(C(=O)NC(C)C)nc1 [TGC0011283],> 100
5,O=C(NCc1ccccc1)c1ccc(C(=O)NCc2ccccc2)nc1 [TGC0011284],> 100
6,O=C(NCc1ccc(F)cc1)c1ccc(C(=O)NCc2ccc(F)cc2)nc1 [TGC0011337],> 10
7,O=C(NCc1ccc(Cl)cc1)c1ccc(C(=O)NCc2ccc(Cl)cc2)nc1 [TGC0011339],> 10
8,O=C(NCCc1cccc(Cl)c1)c1ccc(C(=O)NCCc2cccc(Cl)c2)nc1 [TGC0011340],> 20
9,Cc1cc(I)ccc1NC(=O)c1ccc(C(=O)Nc2ccc(I)cc2C)nc1 [TGC0011341],> 10
10,CC(C)(C)C1CCc2c(sc(NC(=O)c3ccc(C(=O)Nc4sc5c(c4C#N)CCC(C(C)(C)C)C5)nc3)c2C#N)C1 (stereo not drawn) [TGC0011343],> 100
11,O=C(NCC1CCCO1)c1ccc(C(=O)NCC2CCCO2)nc1 (stereo not drawn) [TGC0011424],> 50
12,O=C(c1ccc(C(=O)N2CCCc3ccccc32)nc1)N1CCCc2ccccc21 [TGC0011425],> 25
13,O=C(c1ccc(C(=O)N2CCOCC2)nc1)N1CCOCC1 [TGC0011426],> 50
14,COc1ccc(CNC(=O)c2ccc(C(=O)NCc3ccc(OC)cc3)nc2)cc1 [TGC0011427],> 25
15,O=C(c1ccc(C(=O)N2CCC(Cc3ccccc3)CC2)nc1)N1CCC(Cc2ccccc2)CC1 [TGC0011429],> 25
16,O=C(Nc1ccc2c(c1)OCO2)c1ccc(C(=O)Nc2ccc3c(c2)OCO3)nc1 [TGC0011431],> 50
17,O=C(NCCC1=CCCCC1)c1ccc(C(=O)NCCC2=CCCCC2)nc1 [TGC0011435],> 50

row,SMILES,IC50 [µM]
1,CC(CCc1ccccc1)NC(=O)c1ccc(C(=O)NC(C)CCc2ccccc2)nc1 (stereo not drawn) [TGC0011436],> 10
2,CCC(C)NC(=O)c1ccc(C(=O)NC(C)CC)nc1 (stereo not drawn) [TGC0011437],> 50
3,COc1ccccc1CCNC(=O)c1ccc(C(=O)NCCc2ccccc2OC)nc1 [TGC0011445],> 10
4,COc1cccc(CCNC(=O)c2ccc(C(=O)NCCc3cccc(OC)c3)nc2)c1 [TGC0011446],> 10
5,O=C(NCCc1ccc(F)cc1)c1ccc(C(=O)NCCc2ccc(F)cc2)nc1 [TGC0011447],> 50
6,O=C(NCCc1ccc2c(c1)OCO2)c1ccc(C(=O)NCCc2ccc3c(c2)OCO3)nc1 [TGC0011448],> 10
7,O=C(NCCc1cccc(C(F)(F)F)c1)c1ccc(C(=O)NCCc2cccc(C(F)(F)F)c2)nc1 [TGC0011452],> 10
8,O=C(NCCc1ccccc1OC(F)(F)F)c1ccc(C(=O)NCCc2ccccc2OC(F)(F)F)nc1 [TGC0011454],> 100
9,O=C(NCCc1ccccn1)c1ccc(C(=O)NCCc2ccccn2)nc1 [TGC0011455],> 100
10,COc1cccc(CCNC(=O)c2ccc(C(=O)NCCc3cccc(OC)c3OC)nc2)c1OC [TGC0011456],> 100
11,COc1ccc(OC)c(CCNC(=O)c2ccc(C(=O)NCCc3cc(OC)ccc3OC)nc2)c1 [TGC0011457],> 100
12,COc1ccc(CCNC(=O)c2cnc(C(=O)NCCc3ccc(OC)c(OC)c3)cn2)cc1OC [TGC0011592],> 10
13,COc1ccc(CCNC(=O)c2ccc(C(=O)NCCc3ccc(OC)c(Cl)c3)nc2)cc1Cl [TGC0011593],> 100
14,O=C(Nc1cccnc1O)c1ccc(C(=O)Nc2cccnc2O)nc1 [TGC0012261],> 100
15,COc1ccc(CCNC(=O)c2ccc(-c3ccc(C(=O)NCCc4ccc(OC)c(OC)c4)cn3)nc2)cc1OC [TGC0012281],38
16,COc1cc(C(=O)Nc2ccncc2)c(OC)cc1C(=O)Nc1ccncc1 [TGC0012291],> 50

# The next lines start with the values.
row,IC50 [µM],SMILES
1,> 50,COc1cc(-c2ccc(NC(=O)c3cc(-c4ccc(C)o4)nc4ccccc34)c(OC)c2)ccc1NC(=O)c1cc(-c2ccc(C)o2)nc2ccccc12 [TGC0000161]
2,> 100,CC(=O)Nc1cccc(NC(=O)c2ccc(C(=O)Nc3cccc(NC(C)=O)c3)nc2)c1 [TGC0011279]
3,> 100,CCN(CC)c1ccc(NC(=O)c2ccc(C(=O)Nc3ccc(N(CC)CC)cc3)nc2)cc1 [TGC0011281]
4,> 100,O=C(Nc1ccccc1)c1ccc(C(=O)Nc2ccccc2)nc1 [TGC0011286]
5,> 100,O=C(Nc1ccc(F)c(Cl)c1)c1ccc(C(=O)Nc2ccc(F)c(Cl)c2)nc1 [TGC0011287]
6,> 10,CC(=O)c1cccc(NC(=O)c2ccc(C(=O)Nc3cccc(C(C)=O)c3)nc2)c1 [TGC0011338]
7,> 50,CCCCc1ccc(NC(=O)c2ccc(C(=O)Nc3ccc(CCCC)cc3)nc2)cc1 [TGC0011433]
8,> 100,CC(=O)Nc1ccc(-c2cnc(-c3ccc(NC(C)=O)cc3)nc2)cc1 [TGC0011524]
9,> 10,CC(C)(C)C(=O)Nc1ccc(-c2cnc(-c3ccc(NC(=O)C(C)(C)C)cc3)nc2)cc1 [TGC0011525]
10,> 100,O=C(Nc1ccc(-c2cnc(-c3ccc(NC(=O)C(F)(F)F)cc3)nc2)cc1)C(F)(F)F [TGC0011526]
11,> 10,CC(C)(C)C(=O)Nc1cccc(C(=O)Nc2ccc(-c3cnc(-c4ccc(NC(=O)c5cccc(NC(=O)C(C)(C)C)c5)cc4)nc3)cc2)c1 [TGC0011527]
12,> 100,Cc1ccccc1C(=O)Nc1ccc(-c2cnc(-c3ccc(NC(=O)c4ccccc4C)cc3)nc2)cc1 [TGC0011529]
13,> 10,O=C(Nc1ccc(-c2cnc(-c3ccc(NC(=O)c4ccccc4Cl)cc3)nc2)cc1)c1ccccc1Cl [TGC0011530]
14,> 10,O=C(Nc1ccc(-c2cnc(-c3ccc(NC(=O)c4ccco4)cc3)nc2)cc1)c1ccco1 [TGC0011531]
15,> 100,O=C(Nc1ccc(-c2cnc(-c3ccc(NC(=O)c4ccc(Br)cc4)cc3)nc2)cc1)c1ccc(Br)cc1 [TGC0011533]
16,> 100,CC(C)(C)C(=O)Nc1ccc(C(=O)Nc2ccc(-c3cnc(-c4ccc(NC(=O)c5ccc(NC(=O)C(C)(C)C)cc5)cc4)nc3)cc2)cc1 [TGC0011534]
17,> 100,O=C(COc1ccc(Br)cc1)Nc1ccc(-c2cnc(-c3ccc(NC(=O)COc4ccc(Br)cc4)cc3)nc2)cc1 [TGC0011565]
18,> 50,O=C(Nc1ccc(F)c(F)c1)c1ccc(C(=O)Nc2ccc(F)c(F)c2)nc1 [TGC0012289]
19,> 50,O=C(O)c1ccc(NC(=O)c2ccc(C(=O)Nc3ccc(C(=O)O)cc3)cc2)cc1 [TGC0012290]
20,> 50,CC(=O)Nc1ccc(NC(=O)c2ccc(C(=O)Nc3ccc(NC(C)=O)cc3)cc2)cc1 [TGC0012292]
21,> 10,NC(=O)c1ccc(NC(=O)c2ccc(C(=O)Nc3ccc(C(N)=O)cc3)cc2)cc1 [TGC0012293]
